From PubChem BioAssay AID1259407 (Chemical Carcinogenesis Research Information System (CCRIS), 2018)
Calls of active or inactive are those of the source. How the calls were made is not given here.

System: CCRIS mutagenicity, Ames/micronucleus/aberration tests
Experiment: CCRIS mutagenicity studies
[1] = Test System: AMES SALMONELLA TYPHIMURIUM, Strain/Indicator: TA98, Metabolic Activation: NONE, Method: PREINCUBATION
[2] = Test System: AMES SALMONELLA TYPHIMURIUM, Strain/Indicator: TA100, Metabolic Activation: NONE, Method: PREINCUBATION
[3] = Test System: AMES SALMONELLA TYPHIMURIUM, Strain/Indicator: TA1535, Metabolic Activation: NONE, Method: PREINCUBATION
[4] = Test System: AMES SALMONELLA TYPHIMURIUM, Strain/Indicator: TA1537, Metabolic Activation: NONE, Method: PREINCUBATION
[5] = Test System: AMES SALMONELLA TYPHIMURIUM, Strain/Indicator: TA98, Metabolic Activation: NONE, Method: STANDARD PLATE
[6] = Test System: AMES SALMONELLA TYPHIMURIUM, Strain/Indicator: TA100, Metabolic Activation: NONE, Method: STANDARD PLATE

With `N` the mutagenic call (End Point: IN VIVO MICRONUCLEUS, Test System: BONE MARROW POLYCHROMATIC ERYTHROCYTES, Species: MOUSE, Strain/Sex: DDY/MALE, Route: IP) was “inactive; negative”, the mutagenic call (Test System: AMES SALMONELLA TYPHIMURIUM, Strain/Indicator: TA98, Metabolic Activation: NONE) was “inactive; negative” and the mutagenic call [1] was “inactive; negative”. The mutagenic call (Test System: AMES SALMONELLA TYPHIMURIUM, Strain/Indicator: TA98, Metabolic Activation: RAT, LIVER, S-9, KC 500) was “inactive; negative”, the mutagenic call (Test System: AMES SALMONELLA TYPHIMURIUM, Strain/Indicator: TA98, Metabolic Activation: RAT, LIVER, S-9, KC 500, Method: PREINCUBATION) was “inactive; negative” and the mutagenic call (Test System: AMES SALMONELLA TYPHIMURIUM, Strain/Indicator: TA100, Metabolic Activation: NONE) was “inactive; negative”. The mutagenic call [2] was “inactive; negative”, the mutagenic call (Test System: AMES SALMONELLA TYPHIMURIUM, Strain/Indicator: TA100, Metabolic Activation: RAT, LIVER, S-9, KC 500) was “inactive; negative” and the mutagenic call (Test System: AMES SALMONELLA TYPHIMURIUM, Strain/Indicator: TA100, Metabolic Activation: RAT, LIVER, S-9, KC 500, Method: PREINCUBATION) was “inactive; negative”. For the same compound, the mutagenic call (Test System: AMES SALMONELLA TYPHIMURIUM, Strain/Indicator: TA1535, Metabolic Activation: NONE) was “inactive; negative”, the mutagenic call [3] was “inactive; negative” and the mutagenic call (Test System: AMES SALMONELLA TYPHIMURIUM, Strain/Indicator: TA1535, Metabolic Activation: RAT, LIVER, S-9, KC 500) was “inactive; negative”. For the same compound, the mutagenic call (Test System: AMES SALMONELLA TYPHIMURIUM, Strain/Indicator: TA1535, Metabolic Activation: RAT, LIVER, S-9, KC 500, Method: PREINCUBATION) was “inactive; negative”, the mutagenic call (Test System: AMES SALMONELLA TYPHIMURIUM, Strain/Indicator: TA1537, Metabolic Activation: NONE) was “inactive; negative” and the mutagenic call [4] was “inactive; negative”. The mutagenic call (Test System: AMES SALMONELLA TYPHIMURIUM, Strain/Indicator: TA1537, Metabolic Activation: RAT, LIVER, S-9, KC 500) was “inactive; negative”, the mutagenic call (Test System: AMES SALMONELLA TYPHIMURIUM, Strain/Indicator: TA1537, Metabolic Activation: RAT, LIVER, S-9, KC 500, Method: PREINCUBATION) was “inactive; negative” and the mutagenic call (Test System: AMES SALMONELLA TYPHIMURIUM, Strain/Indicator: TA1538, Metabolic Activation: NONE) was “inactive; negative”. The mutagenic call (Test System: AMES SALMONELLA TYPHIMURIUM, Strain/Indicator: TA1538, Metabolic Activation: NONE, Method: PREINCUBATION) was “inactive; negative”, the mutagenic call (Test System: AMES SALMONELLA TYPHIMURIUM, Strain/Indicator: TA1538, Metabolic Activation: RAT, LIVER, S-9, KC 500) was “inactive; negative” and the mutagenic call (Test System: AMES SALMONELLA TYPHIMURIUM, Strain/Indicator: TA1538, Metabolic Activation: RAT, LIVER, S-9, KC 500, Method: PREINCUBATION) was “inactive; negative”. The mutagenic call (Test System: E. COLI, Strain/Indicator: WP2 UVRA, Metabolic Activation: NONE) was “inactive; negative”, the mutagenic call (Test System: E. COLI, Strain/Indicator: WP2 UVRA, Metabolic Activation: NONE, Method: PREINCUBATION) was “inactive; negative” and the mutagenic call (Test System: E. COLI, Strain/Indicator: WP2 UVRA, Metabolic Activation: RAT, LIVER, S-9, KC 500) was “inactive; negative”. For the same compound, the mutagenic call (Test System: E. COLI, Strain/Indicator: WP2 UVRA, Metabolic Activation: RAT, LIVER, S-9, KC 500, Method: PREINCUBATION) was “inactive; negative”.
In the case of `C=CC1CC=CCC1` (stereo not given), the mutagenic call (Test System: AMES SALMONELLA TYPHIMURIUM, Strain/Indicator: TA98, Metabolic Activation: HAMSTER, LIVER, S-9, AROCLOR 1254 (10%), Method: PREINCUBATION) is reported as “inactive; negative”, the mutagenic call (Test System: AMES SALMONELLA TYPHIMURIUM, Strain/Indicator: TA98, Metabolic Activation: HAMSTER, LIVER, S-9, AROCLOR 1254, Method: PREINCUBATION) is reported as “inactive; negative” and the mutagenic call [1] is reported as “inactive; negative”. The mutagenic call (Test System: AMES SALMONELLA TYPHIMURIUM, Strain/Indicator: TA98, Metabolic Activation: RAT, LIVER, S-9, AROCLOR 1254 (10%), Method: PREINCUBATION) was “inactive; negative”, the mutagenic call (Test System: AMES SALMONELLA TYPHIMURIUM, Strain/Indicator: TA98, Metabolic Activation: RAT, LIVER, S-9, AROCLOR 1254, Method: PREINCUBATION) was “inactive; negative” and the mutagenic call (Test System: AMES SALMONELLA TYPHIMURIUM, Strain/Indicator: TA100, Metabolic Activation: HAMSTER, LIVER, S-9, AROCLOR 1254 (10%), Method: PREINCUBATION) was “inactive; negative”. For the same compound, the mutagenic call (Test System: AMES SALMONELLA TYPHIMURIUM, Strain/Indicator: TA100, Metabolic Activation: HAMSTER, LIVER, S-9, AROCLOR 1254, Method: PREINCUBATION) was “inactive; negative”, the mutagenic call [2] was “inactive; negative” and the mutagenic call (Test System: AMES SALMONELLA TYPHIMURIUM, Strain/Indicator: TA100, Metabolic Activation: RAT, LIVER, S-9, AROCLOR 1254 (10%), Method: PREINCUBATION) was “inactive; negative”. For the same compound, the mutagenic call (Test System: AMES SALMONELLA TYPHIMURIUM, Strain/Indicator: TA100, Metabolic Activation: RAT, LIVER, S-9, AROCLOR 1254, Method: PREINCUBATION) was “inactive; negative”, the mutagenic call (Test System: AMES SALMONELLA TYPHIMURIUM, Strain/Indicator: TA1535, Metabolic Activation: HAMSTER, LIVER, S-9, AROCLOR 1254 (10%), Method: PREINCUBATION) was “inactive; negative” and the mutagenic call (Test System: AMES SALMONELLA TYPHIMURIUM, Strain/Indicator: TA1535, Metabolic Activation: HAMSTER, LIVER, S-9, AROCLOR 1254, Method: PREINCUBATION) was “inactive; negative”. For the same compound, the mutagenic call [3] was “inactive; negative”, the mutagenic call (Test System: AMES SALMONELLA TYPHIMURIUM, Strain/Indicator: TA1535, Metabolic Activation: RAT, LIVER, S-9, AROCLOR 1254 (10%), Method: PREINCUBATION) was “inactive; negative” and the mutagenic call (Test System: AMES SALMONELLA TYPHIMURIUM, Strain/Indicator: TA1535, Metabolic Activation: RAT, LIVER, S-9, AROCLOR 1254, Method: PREINCUBATION) was “inactive; negative”. The mutagenic call (Test System: AMES SALMONELLA TYPHIMURIUM, Strain/Indicator: TA1537, Metabolic Activation: HAMSTER, LIVER, S-9, AROCLOR 1254 (10%), Method: PREINCUBATION) was “inactive; negative”, the mutagenic call (Test System: AMES SALMONELLA TYPHIMURIUM, Strain/Indicator: TA1537, Metabolic Activation: HAMSTER, LIVER, S-9, AROCLOR 1254, Method: PREINCUBATION) was “inactive; negative” and the mutagenic call [4] was “inactive; negative”. For the same compound, the mutagenic call (Test System: AMES SALMONELLA TYPHIMURIUM, Strain/Indicator: TA1537, Metabolic Activation: RAT, LIVER, S-9, AROCLOR 1254 (10%), Method: PREINCUBATION) was “inactive; negative” and the mutagenic call (Test System: AMES SALMONELLA TYPHIMURIUM, Strain/Indicator: TA1537, Metabolic Activation: RAT, LIVER, S-9, AROCLOR 1254, Method: PREINCUBATION) was “inactive; negative”.
`O=C(C(Cl)Cl)C(Cl)(Cl)Cl` was tested, and the mutagenic call [5] was “active; positive” and the mutagenic call [6] was “active; positive”.
With `c1ccc2c(c1)c1ccccc1c1cc3cnccc3cc21` the mutagenic call [5] was “inactive; negative”, the mutagenic call (Test System: AMES SALMONELLA TYPHIMURIUM, Strain/Indicator: TA98, Metabolic Activation: RAT, LIVER, S-9, AROCLOR 1254 (10%), Method: STANDARD PLATE) was “active; positive” and the mutagenic call (Test System: AMES SALMONELLA TYPHIMURIUM, Strain/Indicator: TA98, Metabolic Activation: RAT, LIVER, S-9, AROCLOR 1254, Method: STANDARD PLATE) was “active; positive”. The mutagenic call [6] was “inactive; negative”, the mutagenic call (Test System: AMES SALMONELLA TYPHIMURIUM, Strain/Indicator: TA100, Metabolic Activation: RAT, LIVER, S-9, AROCLOR 1254 (10%), Method: STANDARD PLATE) was “active; positive” and the mutagenic call (Test System: AMES SALMONELLA TYPHIMURIUM, Strain/Indicator: TA100, Metabolic Activation: RAT, LIVER, S-9, AROCLOR 1254, Method: STANDARD PLATE) was “active; positive”.
`CC(C)NCC(=O)NC(=O)C=[N+]=[N-]` was tested, and the mutagenic call (Test System: UDS RODENT CELLS, Strain/Indicator: THY INCORP (NON-S-PHASE), Metabolic Activation: NONE, Method: AUTORADIOGRAPHY) was “active; positive”.
For `Oc1cc2cc3ccccc3cc2c2ccccc12`, the mutagenic call (Test System: CHINESE HAMSTER V-79, Strain/Indicator: V-79/8-AZAGUANINE, Metabolic Activation: NONE, Method: STANDARD PLATE) was “active; positive”.
